Results from patent US10071985B2, “Therapeutic compounds” (Gilead Sciences, Inc., priority 2016, dated 2018).
Like-named read-outs stand apart in the source and are kept apart here.

Tests used:
[1] = Test B: Cytotoxicity Assay; conditions: human
Protocol: Compound cytotoxicity and the corresponding CC50 values was determined using the same protocol as described in the antiviral assay (Test A) except that uninfected cells were used.

[2] = Test C: Pharmacokinetic analysis following intravenous administration to beagle dogs; type: in vivo
Description: (§1) Test C. Pharmacokinetic Analysis Following Intravenous Administration to Sprague-Dawley Rats and Beagle Dogs and Cynomologous Monkeys
All IV formulations were in solution.
(§2) Each rat IV dosing group consisted of 3 male SD rats. […] The animals were fasted overnight prior to dose administration and up to 4 hr after dosing. Each dog IV dosing group consisted of 3 male, naïve beagle dogs. At dosing, the animals weighed ˜10-12 kg. The animals were fasted overnight prior to dose administration and up to 2 hr after dosing.
(§3) For the IV infusion group, the test compound was administered by intravenous infusion over 30 minutes. The rate of infusion was adjusted according to the body weight of each animal to deliver a dose of 1 mg/kg at 2 mL/kg.
(§4) Serial venous blood samples (approximately 0.4 mL each for rat and 1.0 mL for dog) were taken at specified time points after dosing from each animal. The blood samples were collected into Vacutainer™ tubes (Becton-Dickinson Corp, New Jersey, USA) containing EDTA as the anti-coagulant and were immediately placed on wet ice pending centrifugation for plasma. Centrifugation began within 1 hour of collection. All samples were placed into 96-well tubes and maintained on dry ice prior to storage at approximately −70° C.
(§5) An LC/MS/MS method was used to measure the concentration of test compounds in plasma.
(§6) Non-compartmental pharmacokinetic analysis was performed on the plasma concentration-time data.

[3] = Test C: Pharmacokinetic analysis following intravenous administration to cynomolgus monkeys; type: in vivo, cynomolgus (cyno) monkey; conditions: male, cynomolgus monkey, 1 mg/kg; for AUC(0-inf): t = 0 to infinity, read-out: Cyno AUCinf; for Cmax: maximum plasma concentration, read-out: Cyno Cmax
Protocol: as §1
All IV formulations were in solution.
Each cynomolgus (cyno) monkey IV dosing group consisted of 3 male, naïve cyno monkeys At dosing, the animals weighed ˜3.2-4 kg. The animals were fasted overnight prior to dose administration and up to 2 hr after dosing.
as §3, §4, §5, §6

[4] = Test C: Pharmacokinetic analysis following intravenous administration to Sprague-Dawley rats; type: in vivo; conditions: for clearance: read-out: Rat CL (converted); for AUC(0-inf): t = 0 to infinity, read-out: Rat AUCinf; for Cmax: maximum plasma concentration
Description: as §1
All IV formulations were in solution.
as §2, §3, §4, §5, §6

HIV-IIIb = test: Test A: Antiviral Assay in MT4 Cells; type: cell-based, HIV-1
Protocol: 1 mL Aliquots of MT4 cells were pre-infected for 3 hours at 37° C. with 25 μL of cell growth medium (mock-infected) or a fresh 1:250 dilution of an HIV-IIIb concentrated ABI stock (0.004 m.o.i.). Infected and uninfected cells were diluted in cell growth media and 35 μL (2000 cells) was added to each well of the assay plates.
Assay plates were then maintained in a humidified, 5% CO2 incubator at 37° C. After 5 days of incubation, 25 μl of 2× concentrated CellTiter-Glo™ Reagent (catalog #G7573, Promega Biosciences, Inc., Madison, Wis.) was added to each well of the assay plate. Cell lysis was carried out by incubating at room temperature for 10 minutes and then chemiluminescence was read using an Envision plate reader (PerkinElmer).

Human Liver Hepatocytes = test: Test D: Metabolic Stability in Cultured Human Liver Hepatocytes; type: in vitro ADME; conditions: pooled cryopreserved hepatocytes, […] radiolabelled compound, 0-6 hours; calculated from stability data
Protocol: Test D. Metabolic Stability in Cultured Human Liver Hepatocytes
The final hepatocyte concentration was 1 million cells/mL. The hepatocyte/compound reaction mixture was dissolved in InVitroGRO™ KHB buffer (catalog #Z99074, BioreclamationIVT, Inc., Baltimore, Md.) at pH 7.4. The incubations were performed in duplicate. A cell free control and a positive control were included in the incubations. The incubations were carried out with gentle shaking in a 37° C. incubator under a humid atmosphere of 95% air/5% CO2 (v/v). Aliquots (100 mL) were removed after 0, 1, 3, and 6 hours and added to 200 mL quenching solution that comprised 0.1% (v/v) TFA in 5% water/95% acetonitrile (v/v). The samples were placed on a shaker for 10 min, followed by centrifugation at 3000 g for 30 min. The samples of the supernatant were analyzed on a Dionex HPLC/PerkinElmer Flow Scintillation Analyzer as described below.
The column was a Phenomenex Synergi fusion RP (150×4.6 mm, 4 mm) maintained at 32 degrees Celsius. Mobile Phase A consisted of 0.1% (v/v) TFA in 99% water/1% acetonitrile (v/v). Mobile Phase B consisted of 0.1% (v/v) TFA in 5% water/95% acetonitrile (v/v). […]
Metabolic stability was determined by measuring the change in relative abundance of metabolites and parent over time and calculating from it the rate of disappearance of the parent compound. […]

[5] = plasma, IV infusion over 30 minutes
[6] = male, Sprague-Dawley, rat, plasma, iv, 1 mg/kg
[7] = male, Sprague-Dawley, rat, plasma, IV infusion over 30 minutes, 1 mg/kg
[8] = male, Sprague-Dawley, rat, IV infusion over 30 minutes, 1 mg/kg
[9] = Human immunodeficiency virus 1, IIIB, MT4, 120 h

With `CC(C)(C#Cc1ccc(-c2ccc(Cl)c3c(NS(=O)(=O)C4CC4)nn(CC(F)F)c23)c([C@H](Cc2cc(F)cc(F)c2)NC(=O)Cn2nc(C(F)F)c3c2C(F)(F)[C@@H]2C[C@H]32)n1)S(C)(=O)=O` [Compound 38, N—((S)-1-(3-(4-chloro-3-(cyclopropanesulfonamido)-1-(2,2-difluoroethyl)-1H-indazol-7-yl)-6-(3-methyl-3-(methylsulfonyl)but-1-yn-1-yl)pyridin-2-yl)-2-(3,5-difluorophenyl)ethyl)-2-((3bS,4aR)-3-(difluoromethyl)-5,5-difluoro-3b,4,4a,5-tetrahydro-1H-cyclopropa[3,4]cyclopenta[1,2-c]pyrazol-1-yl)acetamide] the CC50 at 5 days [1] was 55200 nM, the “in vivo clearance and terminal half-life in dog compared to compounds A and B” value ([2]; compared to compounds A and B) was “similar” and the clearance ([2]; male, beagle, dog, plasma, iv, 1 mg/kg, read-out: Dog CL (converted)) was 5.5 mL/min/kg. The half-life ([2]; male, beagle, dog, plasma, iv, 1 mg/kg, read-out: Dog t1/2 (converted)) was 7 h, the AUC(0-inf) ([2]; male, beagle, dog, plasma, IV infusion over 30 minutes, 1 mg/kg, t = 0 to infinity, read-out: Dog AUCinf) was 3.3 µM·h and the Vd ([2]; male, beagle, dog, plasma, IV infusion over 30 minutes, 1 mg/kg, volume of distribution at steady state, read-out: Dog Vss) was 1.77 L/kg. It also gave a Cmax ([2]; male, beagle, dog, IV infusion over 30 minutes, 1 mg/kg, maximum plasma concentration) of 1600 nM, a clearance ([3]; plasma, iv, read-out: Cyno CL (converted)) of 3.5 mL/min/kg and a half-life ([3]; plasma, iv, read-out: Cyno t1/2 (converted)) of 9.5 h. The AUC(0-inf) [3, 5] was 4.9 µM·h, the Vd ([3]; plasma, IV infusion over 30 minutes, volume of distribution at steady state, read-out: Cyno Vss) was 2.1 L/kg and the Cmax ([3]; IV infusion over 30 minutes) was 1300 nM. The clearance [4, 6] was 1.33 mL/min/kg, the half-life ([4]; male, Sprague-Dawley, rat, plasma, iv, 1 mg/kg, read-out: Rat t1/2 (converted)) was 19 h and the AUC(0-inf) [4, 7] was 13 µM·h. For the same molecule, the Vd ([4]; male, Sprague-Dawley, rat, plasma, IV infusion over 30 minutes, 1 mg/kg, volume of distribution at steady state, read-out: Rat Vss) was 1.8 L/kg, the Cmax [4, 8] was 2400 nM and the “times longer in vivo terminal half-life in rat relative to compound A” value ([4]; relative to compound A) was “about 9.5 times”. For the same molecule, the “times lower in vivo clearance in rat relative to compound A” value ([4]; relative to compound A) was “about 6.3 times”, the “times longer in vivo terminal half-life in rat relative to compound B” value ([4]; relative to compound B) was “about 6.3 times” and the “times lower in vivo clearance in rat relative to compound B” value ([4]; relative to compound B) was “about 5.4 times”. For the same molecule, the EC50 (HIV-IIIb; [9]) was 0.399 nM, the “times more potent in HIV antiviral assay relative to compound A” value (HIV-IIIb; relative to compound A) was “about 4 times” and the “times more potent in HIV antiviral assay relative to compound B” value (HIV-IIIb; relative to compound B) was “about 8 times”.
In the case of `CC(C)(C#Cc1ccc(-c2ccc(Cl)c3c(NS(C)(=O)=O)nn(CC(F)(F)F)c23)c([C@H](Cc2cc(F)cc(F)c2)NC(=O)Cn2nc(C(F)(F)F)c3c2C(F)(F)[C@@H]2C[C@H]32)n1)S(C)(=O)=O` [Compound 24, N—((S)-1-(3-(4-chloro-3-(methylsulfonamido)-1-(2,2,2-trifluoroethyl)-1H-indazol-7-yl)-6-(3-methyl-3-(methylsulfonyl)but-1-yn-1-yl)pyridin-2-yl)-2-(3,5-difluorophenyl)ethyl)-2-((3bS,4aR)-5,5-difluoro-3-(trifluoromethyl)-3b,4,4a,5-tetrahydro-1H-cyclopropa[3,4]cyclopenta[1,2-c]pyrazol-1-yl)acetamide], the CC50 at 5 days ([1]; uninfected MT4 cells) is reported as 30100 nM, the “Predicted Human Hepatic Clearance” value (Human Liver Hepatocytes) is reported as 0.17 mL/min/kg and the AUC(0-inf) [3, 5] is reported as 4.5 µM·h. For the same molecule, the Cmax ([3]; IV infusion over 30 minutes) was 1300 nM, the clearance [4, 6] was 0.833 mL/min/kg and the AUC(0-inf) [4, 7] was 19 µM·h. For the same molecule, the Cmax [4, 8] was 1800 nM and the EC50 (HIV-IIIb; Human immunodeficiency virus 1, 120 h, MT4 cells infected with HIV-IIIb, 5 days incubation, CellTiter-Glo, read-out: EC50) was 0.185 nM.
`Cn1nc(NS(C)(=O)=O)c2c(Cl)ccc(-c3ccc(C#CC(C)(C)O)nc3[C@H](Cc3cc(F)cc(F)c3)NC(=O)Cn3nc(C(F)(F)F)c4c3C(F)(F)[C@@H]3C[C@H]43)c21` [Compound B, reference compound] gave an EC50 (HIV-IIIb; [9]) of 2.99 nM.
